The values below come from EP4782449A1, “TRICYCLIC PYRIDINE COMPOUND ACTING AS SARM1 ENZYME ACTIVITY INHIBITOR, AND USE THEREOF” (Artivila (ShenZhen) Innovation Center, Ltd., priority 2023, dated 2025).

The subject of test [1] is dorsal root ganglion explants. The experiment in a line: Axonal Wallerian degeneration assay in mouse DRG explant culture. In kind it is cell-based, C57BL/6 male mice. The conditions noted are these: 10 µM test compound, 2 hours pretreatment, axons transected, images at 0 hour and 24 hours. From the text: The experimental method was based on Gerdts J et al. (Gerdts J, Sasaki Y, Vohra B, Marasa J, Milbrandt J. Image-based screening identifies novel roles for IkappaB kinase and glycogen synthase kinase 3 in axonal degeneration. J Biol Chem. 2011 Aug 12;286(32):28011-8).
Dorsal root ganglia were dissected from 2-month-old C57BL/6 male mice and placed in 35 mm culture dishes containing pre-cooled HBSS buffer. Excess tissue from each dorsal root ganglion was removed and cut into 2-3 explants using a scalpel, and the explants were planted in wells of a 96-well plate coated with 100 ng/mL Matrigel (Corning). 100 µL of DRG culture medium (Neurobasal medium (Gibco) containing 2% B-27 (Gibco), 1% GlutaMax (Gibco), and 10 ng/mL NGF (MCE)) was added, then cultured in a 37°C incubator for one week, with medium change on day 4, and experiments were performed on day 8.
0.1 µL of 10 mM test compound was dissolved in 100 µL DRG culture medium to prepare new culture medium containing 10 µM test compound. The culture medium in the 96-well plate was aspirated and new culture medium containing the test compound was added. Then the dorsal root ganglion explants were incubated with the medium in a 37°C incubator for 2 hours for pre-protection. After 2-hour pretreatment, a glass electrode was used to transect axons in the area near the tissue block, and bright-field images of axons in the same area were captured at 0 hour and 24 hours post axonal degeneration using a 20x objective lens of a microscope (Olympus). Axonal integrity was evaluated using an in-house developed script.

In test [2] the target is T1, SARM1 (Homo sapiens, UniProt Q6SZW1).
T1 construct: inventors produced full-length SARM1 for NAD enzyme activity experiments, and used it for screening; His (C); made in house; host or cells: HEK293 cells, transient transfection; supernatant of digitonin lysate, no further purification described
T1 sequence (Q6SZW1 28-724): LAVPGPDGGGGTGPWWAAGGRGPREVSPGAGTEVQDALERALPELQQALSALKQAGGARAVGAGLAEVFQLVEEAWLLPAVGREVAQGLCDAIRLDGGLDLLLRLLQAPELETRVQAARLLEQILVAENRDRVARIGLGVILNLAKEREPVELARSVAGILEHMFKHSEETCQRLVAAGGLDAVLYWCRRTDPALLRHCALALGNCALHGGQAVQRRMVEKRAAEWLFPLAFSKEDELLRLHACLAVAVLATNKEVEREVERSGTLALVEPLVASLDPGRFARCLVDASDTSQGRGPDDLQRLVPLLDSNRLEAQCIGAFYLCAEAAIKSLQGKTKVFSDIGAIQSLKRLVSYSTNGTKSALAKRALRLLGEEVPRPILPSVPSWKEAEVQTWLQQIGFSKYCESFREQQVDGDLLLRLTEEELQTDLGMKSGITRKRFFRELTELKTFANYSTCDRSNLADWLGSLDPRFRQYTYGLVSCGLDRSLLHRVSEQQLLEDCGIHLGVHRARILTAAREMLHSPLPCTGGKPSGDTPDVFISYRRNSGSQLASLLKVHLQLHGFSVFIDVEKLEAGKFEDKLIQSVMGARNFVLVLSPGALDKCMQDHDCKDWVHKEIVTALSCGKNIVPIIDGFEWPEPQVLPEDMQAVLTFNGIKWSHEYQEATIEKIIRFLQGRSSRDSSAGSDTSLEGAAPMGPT
The experiment in a line: In vitro biochemical assay for inhibiting SARM1 enzyme activity (PC6 fluorescence, NADase). The conditions noted are these: full-length SARM1 from transfected HEK293 cells; 50 µM NAD, 50 µM PC6, 50 µM NMN activator; room temperature, 30 minutes; read-out: IC50. On the procedure: The gene sequence of SARM1 protein was amplified using PCR, and the PCR amplification product was constructed into pcDNA3.1-HIS-C plasmid. The above construction was completed by YouBio(Hunan, China). HEK293 cells were cultured in 10 cm dishes using DMEM, and the cells were transfected with 15 μg pcDNA3.1-SARM[…]-C expression plasmid on the following day. Cells were collected 48 hours after transfection, and SARM1 protein expressed in the cells was obtained by digitonin lysis for in vitro activity assay experiments. The specific procedure was as follows: Cells were digested with trypsin-EDTA, then centrifuged at 1000 rpm for 5 minutes, washed once with PBS, and then resuspended in PBS containing 100 μM digitonin, with 0.6 mL PBS for the cells in per 10 cm dish, and lysed for 5 minutes. […] Then the supernatant containing SARM1 protein was collected by centrifugation at 5000 rpm for 10 minutes. […] A group without inhibitor was used as control group. All mixtures were incubated at room temperature for 10 minutes. Then, 50 μM NAD and 50 μM PC6 as substrates and 50 μM NMN as an activator were added to the SARM1 protein incubated with the inhibitor, and the reaction was carried out at room temperature for 30 minutes. The concentrations of each component were the final concentrations in the reaction system. […] Finally, the reaction rate was used to represent the protein activity and calculate the half-maximal inhibitory concentration.

The term IC50 denotes the concentration needed to halve the response being measured. `[2H]C1(Cc2ccc(F)cc2)CCN(c2ccc3c(c2)COc2cnccc2-3)C1=O` (stereo not drawn) [Compound 139, 3-(4-fluorobenzyl)-1-(6H-isochromeno[3,4-c]pyridin-8-yl)pyrrolidin-2-one-3d]: the “Degree of Protection Against Axonal Wallerian Degeneration” value (from here on “Degree”) in test [1] is “A (substantial protection (A) >50%)”. In addition, the IC50 in test [2] was less than 100 nM.

On to `O=C(CCc1c(F)c(F)c(F)c(F)c1F)Nc1ccc2c(c1)COc1cnccc1-2` [Compound 80], for which the “Degree” value in test [1] is “A (substantial protection (A) >50%)”. In addition, in test [2], the IC50 is less than 100 nM. In the case of `O=C1[C@@H](Cc2ccc(F)cc2)CCN1c1ccc2c(c1)COc1cnccc1-2` [Compound 155], the IC50 in test [2] is less than 100 nM. On to `N#Cc1c(F)cc(CCC(=O)Nc2ccc3c(c2)COc2cnccc2-3)cc1F` [Compound 44], for which, in test [2], the 50% inhibitory concentration (IC50) is less than 100 nM. Regarding `O=C(CCc1ccccc1)Nc1ccc2c(c1)COc1cnccc1-2` [Compound 38], the IC50 in test [2] was less than 100 nM. In the case of `O=C(CCc1ccc(Cl)cc1)Nc1ccc2c(c1)COc1cnccc1-2` [Compound 42, 3-(4-chlorophenyl)-N-(6H-isochromeno[3,4-c]pyridin-8-yl)propanamide], the “Degree” value in test [1] is “A (substantial protection (A) >50%)”. In addition, in test [2], the IC50 was less than 100 nM.

Consider `O=C(CCc1ccc(Cl)cc1)Nc1cnc2c(c1)COc1cnccc1-2` [Compound 84], for which the “Degree” value in test [1] is on record as “B (partial protection (B): 20% to 50%)”. The IC50 in test [2] is less than 100 nM.

Take `O=C1C(Cc2cccc3c2CCCC3)CCN1c1ccc2c(c1)COc1cnccc1-2` (stereo not drawn) [Compound 56]: the “Degree” value in test [1] is “B (partial protection (B): 20% to 50%)”. Besides, in test [2], the half-maximal inhibitory concentration (IC50) is 1000 to 10000 nM. For `O=C(CCc1cc(F)cc(F)c1)Nc1ccc2c(c1)COc1cnccc1-2` [Compound 39] the same measures were “A (substantial protection (A) >50%)” and less than 100 nM. With `O=C(CCc1ccc(F)c(F)c1)Nc1cnc2c(c1)COc1cnccc1-2` [Compound 87], in test [1], the “Degree” value is listed as “A (substantial protection (A) >50%)”. Further, the IC50 in test [2] was less than 100 nM. Turning to `N#Cc1ccc(CCC(=O)Nc2ccc3c(c2)COc2cnccc2-3)cc1F` [Compound 30], in test [1], the “Degree” value is recorded as “A (substantial protection (A) >50%)”. In addition, the IC50 in test [2] was in the range of 100 to 1000 nM.

Regarding `CC(Cc1ccc(F)cc1)C(=O)Nc1ccc2c(c1)COc1cnccc1-2` (stereo not drawn) [Compound 73], the “Degree” value in test [1] was “A (substantial protection (A) >50%)”. In test [2], the concentration for half-maximal inhibition (IC50) lay in the range of 100 to 1000 nM. Consider `O=C(NCc1ccc(Cl)nc1)Nc1ccc2c(c1)COc1cnccc1-2` [Compound 66], for which, in test [2], the IC50 fell in the range of 100 to 1000 nM. The same measure, in the same setting: in the case of `Cc1ccc(CC2CCN(c3ccc4c(c3)COc3cnccc3-4)C2=O)cc1` (stereo not drawn) [Compound 8] it was 1000 to 10000 nM; in that of `O=C(Cc1ccc(F)cc1)Nc1ccc2c(c1)COc1cnccc1-2` [Compound 51], 1000 to 10000 nM. Same read-out and setting: then `CN(C(=O)CCc1ccc(F)cc1)c1ccc2c(c1)COc1cnccc1-2` [Compound 49, 3-(4-fluorophenyl)-N-(6H-isochromeno[3,4-c]pyridin-8-yl)-N-methylpropanamide], with 1000 to 10000 nM; and `O=C(Nc1ccc2c(c1)COc1cnccc1-2)C(F)Cc1ccc(Cl)cc1` (stereo not drawn) [Compound 35], with 100 to 1000 nM.

Regarding `C=Cc1ccc(CC2CCN(c3ccc4c(c3)COc3cnccc3-4)C2=O)cc1` (stereo not drawn) [Compound 149], in test [2], the IC50 is 1000 to 10000 nM. Consider `O=C1C(Cc2ccc(Cl)cc2F)CCN1c1ccc2c(c1)COc1cnccc1-2` (stereo not drawn) [Compound 3], for which the IC50 in test [2] fell in the range of 1000 to 10000 nM.

In the case of `CN(C)c1ccc(CCC(=O)Nc2ccc3c(c2)COc2cnccc2-3)cc1` [Compound 79], the IC50 in test [2] fell in the range of 1000 to 10000 nM. Same read-out and setting: then `O=C(CCc1ccc2ccccc2c1)Nc1ccc2c(c1)COc1cnccc1-2` [Compound 81], with 1000 to 10000 nM; and `O=C(CCc1ccc(Cl)nc1)Nc1ccc2c(c1)COc1cnccc1-2` [Compound 26], with less than 100 nM; and `O=C(CCc1cccc2ccccc12)Nc1ccc2c(c1)COc1cnccc1-2` [Compound 82], with 1000 to 10000 nM. Turning to `O=C(CCc1ccc([N+](=O)[O-])cc1)Nc1ccc2c(c1)COc1cnccc1-2` [Compound 23], the IC50 in test [2] fell in the range of 1000 to 10000 nM. With `O=C(CCc1cccc(Cl)c1)Nc1ccc2c(c1)COc1cnccc1-2` [Compound 31], the IC50 in test [2] is less than 100 nM. As to `CN(Cc1ccc(F)cc1)C(=O)Nc1cnc2c(c1)COc1cnccc1-2` [Compound 153], the IC50 in test [2] is less than 100 nM. Consider `O=C(CCc1cc(F)c(Cl)c(F)c1)Nc1ccc2c(c1)COc1cnccc1-2` [Compound 43], for which the IC50 in test [2] was less than 100 nM. Regarding `Cc1c(NC(=O)CCc2ccc(F)cc2)ccc2c1COc1cnccc1-2` [Compound 131, 3-(4-fluorophenyl)-N-(7-methyl-6H-isochromeno[3,4-c]pyridin-8-yl)propanamide], the IC50 in test [2] lay in the range of 1000 to 10000 nM. For `NC(Cc1ccc(F)cc1)C(=O)Nc1ccc2c(c1)COc1cnccc1-2` (stereo not drawn) [Compound 52, 2-amino-3-(4-fluorophenyl)-N-(6H-isochromeno[3,4-c]pyridin-8-yl)propanamide], the IC50 in test [2] is 100 to 1000 nM.

For `O=C1C(Cc2ccc(F)cc2)CCN1c1ccc2c(c1)COCc1cnccc1-2` (stereo not drawn) [Compound 53, 1-(5,7-dihydrobenzo[5,6]oxepino[3,4-c]pyridin-9-yl)-3-(4-fluorobenzyl)pyrrolidin-2-one], the IC50 in test [2] was in the range of 1000 to 10000 nM. As to `O=C1[C@H](Cc2ccc(F)cc2)CCN1c1ccc2c(c1)COc1cnccc1-2` [Compound 154], in test [2], the IC50 was less than 100 nM. Regarding `O=C1C(Cc2ccc(C(F)(F)F)cc2)CCN1c1ccc2c(c1)COc1cnccc1-2` (stereo not drawn) [Compound 14], the half-inhibitory concentration (IC50) in test [2] was in the range of 1000 to 10000 nM. As to `O=C(CCc1ccc2c(c1)OCO2)Nc1ccc2c(c1)COc1cnccc1-2` [Compound 20], the IC50 in test [2] is less than 100 nM. As for `O=C(NCc1cc(F)cc(F)c1)Nc1ccc2c(c1)COc1cnccc1-2` [Compound 48], in test [2], the IC50 was in the range of 100 to 1000 nM. The same measure, in the same setting: in the case of `C#Cc1ccc(CCC(=O)Nc2ccc3c(c2)COc2cnccc2-3)cc1` [Compound 148] it was less than 100 nM; in that of `CC(C)c1cncc2c1-c1ccc(NC(=O)CCc3ccc(F)cc3)cc1CO2` [Compound 141], 1000 to 10000 nM; in that of `O=C(CCc1ccc(OC(F)(F)F)cc1)Nc1ccc2c(c1)COc1cnccc1-2` [Compound 24], 100 to 1000 nM. `O=C1C(Cc2ccc3ocnc3c2)CCN1c1ccc2c(c1)COc1cnccc1-2` (stereo not drawn) [Compound 61]: the concentration for half-maximal inhibition (IC50) in test [2] fell in the range of 100 to 1000 nM. As for `O=C(NCc1ccc2c(c1)OCO2)Nc1ccc2c(c1)COc1cnccc1-2` [Compound 64], the IC50 in test [2] was in the range of 1000 to 10000 nM.

Regarding `O=C(CCc1ccc2c(c1)CCO2)Nc1ccc2c(c1)COc1cnccc1-2` [Compound 83], in test [2], the IC50 lay within 100 to 1000 nM. With `O=C(NCc1cccc(Cl)c1)Nc1ccc2c(c1)COc1cnccc1-2` [Compound 69], the IC50 in test [2] was in the range of 1000 to 10000 nM.

As for `O=C1N(Cc2ccc(F)cc2)CCN1c1ccc2c(c1)COc1cnccc1-2` [Compound 150], the half-inhibitory concentration (IC50) in test [2] was less than 100 nM.
